The supplement of paper PMC11061612

What was measured:
Test in all cases: combination Emax (second highest fraction inhibited in the dose matrix, 72 h); higher = more inhibition; extreme values may be limits of the assay
[1] = system: GP5d (Colorectal Carcinoma)
Summary of the method: (§1)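 Cell lines grown in DMEM/F12 or RPMI with 10% FBS were plated in 1536-well plates and held 24 hours at 37°C, 5% CO2 before 72 hours of exposure to two-drug dose matrices, with DMSO typically at 0.2%. CellTiter-Glo 2.0 luminescence gave viability, which was converted to inhibition. Vehicle wells were set to 0 and blank wells to 1. Combination Emax is the second-highest inhibition in the matrix, and Bliss excess is the observed combination effect minus the expected EA + EB − EA·EB, where EA and EB are the single-agent effects.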

[2] = system: HCT-15 (Colorectal Carcinoma)
Summary of the method: as §1

[3] = system: HEC-1 (Endometrial Carcinoma)
Summary of the method: as §1

IST-MES1 (Mesothelioma) = system: IST-MES1 (Mesothelioma)
Summary of the method: as §1

[4] = system: LK-2 (Squamous Cell Lung Carcinoma)
Summary of the method: as §1

[5] = system: LXF-289 (Lung Adenocarcinoma)
Summary of the method: as §1

[6] = system: MKN45 (Gastric Carcinoma)
Summary of the method: as §1

[7] = system: NCI-H446 (Small Cell Lung Carcinoma)
Summary of the method: as §1

[8] = system: OAW-42 (Ovarian Carcinoma)
Summary of the method: as §1

[9] = system: OPM-2 (Plasma Cell Myeloma)
Summary of the method: as §1

[10] = system: OVMIU (Ovarian Carcinoma)
Summary of the method: as §1

[11] = system: PANC-03-27 (Pancreatic Carcinoma)
Summary of the method: as §1

[12] = system: PSN1 (Pancreatic Carcinoma)
Summary of the method: as §1

[13] = system: RCM-1 (Colorectal Carcinoma)
Summary of the method: as §1

[14] = system: RKN (Other Solid Carcinomas)
Summary of the method: as §1

SF539 (Glioblastoma) = system: SF539 (Glioblastoma)
Summary of the method: as §1

[15] = system: SHP-77 (Small Cell Lung Carcinoma)
Summary of the method: as §1

[16] = system: SK-PN-DW (Other Solid Carcinomas)
Summary of the method: as §1

[17] = system: VAL (B-Cell Non-Hodgkin's Lymphoma)
Summary of the method: as §1

WM793B (Melanoma) = system: WM793B (Melanoma)
Summary of the method: as §1

Structure (SMILES)	combination Emax [1]	combination Emax [2]	combination Emax [3]	combination Emax (IST-MES1 (Mesothelioma))	combination Emax [4]	combination Emax [5]	combination Emax [6]	combination Emax [7]	combination Emax [8]	combination Emax [9]	combination Emax [10]	combination Emax [11]	combination Emax [12]	combination Emax [13]	combination Emax [14]	combination Emax (SF539 (Glioblastoma))	combination Emax [15]	combination Emax [16]	combination Emax [17]	combination Emax (WM793B (Melanoma))
CC(=O)Nc1cccc(-n2c(=O)n(C3CC3)c(=O)c3c(Nc4ccc(I)cc4F)n(C)c(=O)c(C)c32)c1 [Trametinib] + Cc1nc(-c2cn3c(n2)-c2ccc(-c4cnn(C(C)(C)C(N)=O)c4)cc2OCC3)n(C(C)C)n1 [Taselisib] (first compound max 1 µM, 7x7, partner max 10 µM)	0.907	0.756	0.346	0.434	0.608	0.963	0.799	0.94	0.969	1	0.973	0.982	0.946	0.871	0.544	0.989	0.459	0.695	0.424	0.855
CC1(C)CCC(CN2CCN(c3ccc(C(=O)NS(=O)(=O)c4ccc(NCC5CCOCC5)c([N+](=O)[O-])c4)c(Oc4cnc5[nH]ccc5c4)c3)CC2)=C(c2ccc(Cl)cc2)C1 [Venetoclax] + C1CN(CCC1(C(=O)N[C@@H](CCO)C2=CC=C(C=C2)Cl)N)C3=NC=NC4=C3C=CN4 [Capivasertib] (first compound max 1 µM, 7x7, partner max 3 µM)	0.557	0.254	0.102	0.123	0.177	0.204	0.581	0.561	0.368	0.925	0.285	0.626	0.218	0.367	0.149	0.551	0.402	0.882	1	0.295
CC1(C)CCC(CN2CCN(c3ccc(C(=O)NS(=O)(=O)c4ccc(NCC5CCOCC5)c([N+](=O)[O-])c4)c(Oc4cnc5[nH]ccc5c4)c3)CC2)=C(c2ccc(Cl)cc2)C1 [Venetoclax] + C=CCn1c(=O)c2cnc(Nc3ccc(N4CCN(C)CC4)cc3)nc2n1-c1cccc(C(C)(C)O)n1 [AZD1775] (first compound max 1 µM, partner max 1 µM)	0.795	0.47	0.182	0.254	0.932	0.575	0.765	0.943	0.436	0.971	0.682	0.855	0.391	0.698	0.176	0.972	0.733	0.955	1	0.531
CC1(C)CCC(CN2CCN(c3ccc(C(=O)NS(=O)(=O)c4ccc(NCC5CCOCC5)c([N+](=O)[O-])c4)c(Oc4cnc5[nH]ccc5c4)c3)CC2)=C(c2ccc(Cl)cc2)C1 [Venetoclax] + CCN(CCO)CCCOc1ccc2c(Nc3cc(CC(=O)Nc4cccc(F)c4)[nH]n3)ncnc2c1 [AZD2811] (first compound max 1 µM, 7x7, partner max 1 µM)	0.513	0.178	0.16	0.198	0.851	0.389	0.588	0.894	0.204	0.689	0.289	0.673	0.222	0.372	0.176	0.481	0.64	0.872	1	0.258
CC1(C)CCC(CN2CCN(c3ccc(C(=O)NS(=O)(=O)c4ccc(NCC5CCOCC5)c([N+](=O)[O-])c4)c(Oc4cnc5[nH]ccc5c4)c3)CC2)=C(c2ccc(Cl)cc2)C1 [Venetoclax] + CN(C)CCCOc1ccc(-c2ccc3ncc4c(c3c2)n(C2CCOCC2)c(=O)n4C)cn1 [AZD0156] (first compound max 1 µM, 7x7, partner max 1 µM)	0.279	0.226	0.163	0.0799	0.321	0.245	0.688	0.304	0.204	0.574	0.345	0.684	0.3	0.45	0.107	0.292	0.424	0.825	1	0.244
CC1(C)CCC(CN2CCN(c3ccc(C(=O)NS(=O)(=O)c4ccc(NCC5CCOCC5)c([N+](=O)[O-])c4)c(Oc4cnc5[nH]ccc5c4)c3)CC2)=C(c2ccc(Cl)cc2)C1 [Venetoclax] + COc1cc(Nc2ncc3c(n2)-c2ccc(Cl)cc2C(c2c(F)cccc2OC)=NC3)ccc1C(=O)O [Alisertib] (first compound max 1 µM, 7x7, partner max 10 µM)	0.498	0.537	0.165	0.489	0.848	0.643	0.563	0.909	0.652	0.828	0.522	0.56	0.526	0.372	0.203	0.454	0.719	0.882	1	0.383
